Where two headings read alike, the source gives them in different places.
Tests used:
esterases = assay: Enzymatic stability: hydrolysis in Hepes buffer in the presence of esterases; conditions: 50 mM Hepes buffer, pH 7.4, 37° C., FIG. 1
Experimental: During the incubation at 37° C., 40 μl aliquots are sampled at appropriate time periods and analyzed by HPLC and ESI-MS.

[1] = assay type: in vitro ADME; conditions: bovine, serum
[2] = Water-solubility by visual examination in 67 mM Sorensen phosphate buffers; assay type: physicochemical; conditions: 67 mM Sorensen phosphate buffer, ambient temperature
[3] = rat, in vivo, iv, 10 mg/kg
cornea = assay: Confocal laser scanning opthalmoscope test (subacute ocular toxicity); conditions: rabbit cornea, 25 μl three times a day for four days; (XV) aqueous solution, Cyclosporin A 1% in olive oil
Experimental: The solutions were sterilized by passing them through 0.22 μm nitrocellulose filters.
This test was carried out on the same type of animal as previously. 25 μl of a solution as described above were instilled onto the cornea of the right eye three times a day for four days, and then once on the fourth day just before observation. After the final installation, the rabbits were sedated by administering ketamine hydrochloride and xylazine. A total of 25 μl of a solution of sodium fluorescein at 0.5% by weight/volume were instilled onto the eye in order to allow selective labeling of the surfaces possibly damaged. The eye was then rinsed for one minute with a saline solution at 37° C.
The opthalmoscope was coupled to an image analysis system in order to be able to reconstitute an image in three dimensions and to allow evaluation of the damaged areas.

in vitro = in vitro ADME; conditions: rabbit, cerebrospinal or other body fluid, pH 7
Experimental: This conversion kinetics test was carried out by incubating, at 37° C., 25 μl of a sample of the solution described above, with gentle stirring, with 8 μl of fresh rabbit tear. 2 μl samples were taken at intervals of 1, 2, 3 and 30 minutes, and were then analyzed by HPLC.

[4] = T1/22 (terminal half-life time)

Compound | hydrolysis in the presence of esterases (release of Cyclosporin A) (esterases) | half-life [1] [min] | solubility ([2]; pH 5) [mM] | solubility ([2]; pH 6, read-out: Water-solubility at pH = 6) [mM] | solubility ([2]; pH 7) [mM] | solubility ([2]; pH 8, read-out: Water-solubility at pH = 8) [mM] | AUC(0-inf) [3] [ng·h/mL] | MRT [3] [h] | clearance [3] [mL/min/kg] | half-life ([3]; T1/21 (initial half-life time)) [min] | half-life [3, 4] [min] | CLSO, % lesions (corneal lesions) (cornea) [%] | metabolised at 0.05 h, 0.76 % (weight/volume) Cyclosporin A equivalent (in vitro) [%]
C/C=C/C[C@@H](C)[C@@H](OC(=O)CN(C)C(=O)[C@H](COP(=O)(O)O)NC(=O)OC(C)OC(C)=O)[C@H]1C(=O)N[C@@H](CC)C(=O)N(C)CC(=O)N(C)[C@@H](CC(C)C)C(=O)N[C@@H](C(C)C)C(=O)N(C)[C@@H](CC(C)C)C(=O)N[C@@H](C)C(=O)N[C@H](C)C(=O)N(C)[C@@H](CC(C)C)C(=O)N(C)[C@@H](CC(C)C)C(=O)N(C)[C@@H](C(C)C)C(=O)N1C (stereo partly shown) [(XVI), MeBmt(O-Sar-Ser(OPO(OH)2)—COOCH(CH3)OCOCH3)^1-CsA] | rapidly degrades to release the Cyclosporin A | 210 | > 20 | > 20 | > 20 | > 20 | 44700 | 14.9 | 3.67 | 12 | 708 |  | 
C/C=C/C[C@@H](C)[C@@H](OC(=O)CN(C)C(=O)[C@H](CCCC[N+](C)(C)C)NC(=O)OC(C)OC(C)=O)[C@H]1C(=O)N[C@@H](CC)C(=O)N(C)CC(=O)N(C)[C@@H](CC(C)C)C(=O)N[C@@H](C(C)C)C(=O)N(C)[C@@H](CC(C)C)C(=O)N[C@@H](C)C(=O)N[C@H](C)C(=O)N(C)[C@@H](CC(C)C)C(=O)N(C)[C@@H](CC(C)C)C(=O)N(C)[C@@H](C(C)C)C(=O)N1C (stereo partly shown) [(XV), MeBmt(O-Sar-Lys(Nε^+Me3)-COOCH(CH3)OCOCH3))^1-CsA.I^−] |  | 220 |  |  |  |  | 66600 | 15.3 | 2.5 | 33 | 708 | 7 | 3

Source: patent US6995139B2, “Cyclic undecapeptide pro-drugs and uses thereof” (Debiopharm S.A., priority 2001, dated 2006)
